Assay results: ChEMBL document CHEMBL3797172, “Structure Property Relationships of Carboxylic Acid Isosteres” (J Med Chem, 2016)
Converted amounts (≈) assume the structure as drawn.

Assays:
[1] = octanol/water, pH 7.4, 1 h
physchem = conditions: aqueous phosphate buffer, pH 7.4
[2] = Effective permeability of compound at pH 7.4 at 200 uM after 5 hrs by PAMPA; assay type: ADME; conditions: for Peff: pampa, pH 7.4, 5 h, 200 µM, BLD = below limit of detection
[3] = Dissociation constant, pKa of the compound at 100 uM by capillary electrophoresis; assay type: physicochemical; conditions: 100 µM
[4] = Apparent permeability of compound at pH 7.4 at 200 uM by PAMPA; assay type: physicochemical; conditions: pH 7.4, 200 µM, BLD = below limit of detection
[5] = Effective permeability of compound assessed as membrane retention at pH 7.4 at 200 uM after 5 hrs by PAMPA relative to control; assay type: ADME; conditions: pH 7.4, 5 h
[6] = Percentage unbound in human plasma at 5 uM after 6 hrs by equilibrium dialysis method; assay type: ADME, cell-free; conditions: 6 h, 5 µM
[7] = buffer, pH 7.4, 24 h, 200 µM

| Compound | logD [1] | solubility kinetic at 24 h, 200 µM (physchem) | Peff [2] | pKa [3] | logPapp [4] | R% [5] | Fu [6] | Kinetic_solubility [7] | Papp at 5 h, 200 µM ([2]; PAMPA, pH 7.4, read-out: Peff) |
| --- | --- | --- | --- | --- | --- | --- | --- | --- | --- |
| O=c1c(O)c(Cc2ccccc2)c1=O | -0.84 | 166 µM (≈ 31.2 µg/mL) | BLD | < 2 | BLD | -13% | 8.19% | – | – |
| S=c1[nH]c(CCc2ccccc2)no1 | -0.25 | ≥ 200 µM | – | – | – | -3.4% | 0.65% | – | – |
| O=C1CCC(O)=C1Cc1ccccc1 | -0.6 | 199 µM (≈ 37.5 µg/mL) | – | – | – | -8.8% | 14.3% | – | – |
| O=C1C=C(O)CC1Cc1ccccc1 (stereo not given) | -0.7 | 195 µM (≈ 36.7 µg/mL) | – | – | – | -3% | 7.96% | – | – |
| Oc1ccccc1SCc1ccccc1 | > 3.78 | – | – | – | – | – | – | ND(Unstable) | – |
| CONC(=O)CCc1ccccc1 | 1.16 | ≥ 200 µM | – | – | – | 5.3% | 68% | – | – |
| O=c1[nH]c(CCc2ccccc2)ns1 | 1.66 | 200 µM (≈ 41.4 µg/mL) | – | – | – | -0.7% | 1.17% | – | – |
| O=C1NC(=O)C(Cc2ccccc2)O1 (stereo not given) | -0.16 | ≥ 200 µM | – | – | – | -0.6% | 14% | – | – |
| CC(=O)N(O)CCc1ccccc1 | 1.52 | ≥ 200 µM | – | – | – | 1.1% | 37% | – | – |
| [O-][S+](Cc1ccccc1)c1ccccc1O (stereo not given) | 2.16 | ≥ 200 µM | – | – | – | 1.1% | 12% | – | – |
| CS(=O)(=O)NC(=O)NCc1ccccc1 | -1.23 | 198 µM (≈ 45.1 µg/mL) | – | – | – | 3% | 31% | – | – |
| O=C1NC(=O)C(Cc2ccccc2)S1 (stereo not given) | 1.07 | 200 µM (≈ 41.5 µg/mL) | – | – | – | 5.5% | 3.4% | – | – |
| O=[PH](O)CCc1ccccc1 | – | 128 µM (≈ 21.7 µg/mL) | – | – | – | -2.1% | 8.86% | – | – |
| O=c1[nH]c(CCc2ccccc2)no1 | 0.32 | ≥ 200 µM | – | – | – | -4% | 1.1% | – | – |
| NS(=O)(=O)CCc1ccccc1 | 0.96 | ≥ 200 µM | – | – | – | 4.2% | 60.72% | – | – |
| O=P(O)(O)CCc1ccccc1 | – | 152 µM (≈ 28.4 µg/mL) | – | – | – | -2.7% | 31% | – | 0.094 ×10⁻⁶ cm/s |
| O=S([O-])CCc1ccccc1.[Na+] | -1.3 | ≥ 200 µM | BLD | – | BLD | -6.8% | 5% | – | – |
